This is an account of results in the supplement of paper PMC3493320.

Where only a bound is given, the exact number is not on record here.

The subject of this assay is NCI-H295R. Description: IC50 (antiproliferative, ATP content). Particulars: 48 h. The method in brief: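 Adrenocortical carcinoma cells (1500 per well) were seeded in serum-free ITS-supplemented DMEM in 1536-well plates and cultured overnight. Library compounds were then pin-transferred at 8 final concentrations from 0.6 nM to 46 µM, and plates were kept 48 h at 37 °C, 5% CO2. ATP was read as CellTiter-Glo luminescence after 20 min at room temperature and normalised to vehicle (0%) and positive control (100% inhibition). IC50 came from four-parameter logistic fits; compounds with no concentration response were recorded as above the top dose.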
Consider `C[C@@H]1CN([C@H]2CC[C@](C#N)(c3ccc(F)cc3)CC2)CC[C@]1(C(=O)O)c1ccccc1.Cl`, for which the half-maximal inhibitory concentration (IC50) (in general, the point on the concentration scale where inhibition reaches its midpoint) was > 46 µM.
To `Oc1cc(Cl)c(Cl)cc1Cl` belongs > 46 µM; to `CC(C)CCOC(=O)c1ccc(N(C)C)cc1`, > 46 µM.
Consider `CCN(CC)Cc1cc(Nc2ccnc3cc(Cl)ccc23)ccc1O.Cl.Cl.O.O`, for which the IC50 is > 46 µM.
Consider `Nc1nc(=O)c2c([nH]1)NCC(CNc1ccc(C(=O)N[C@@H](CCC(=O)[O-])C(=O)[O-])cc1)N2C=O.[Ca+2]` (stereo partly drawn), for which the IC50 is > 46 µM.
The same measure for `O=C1[C@H]3[C@H](C3)[C@@]([C@]4([H])[C@@]([C@@]5([H])[C@]([C@@](CC5)(OC(C)=O)[C@@](C)=O)(C)CC4)([H])C=C2Cl)(C)C2=C1`: > 46 µM.
As to `C=C1C[C@H]2[C@@H]3C=C(C)C4=CC(=O)CC[C@]4(C)[C@H]3CC[C@]2(C)[C@@]1(OC(C)=O)C(C)=O`, the IC50 was > 46 µM.
On to `COc1ccnc(CS(=O)c2nc3cc(OC(F)F)ccc3[nH]2)c1OC` (stereo not drawn), for which the IC50 is > 46 µM.
In the case of `CC1NCCOC1c1ccccc1.Cl` (stereo not drawn), the IC50 was > 46 µM.
The same measure for `O=C(C2=CC=CC=C2)O[C@H]1C[C@H](CC3)N(C)[C@H]3[C@H]1[C@@](O)=O`: > 46 µM; for `CC(=O)Nc1c(I)c(C(=O)[O-])c(I)c(N(C)C(C)=O)c1I.[Na+]`: > 46 µM; for `Clc1cccc(Cl)c1N=C1NCCN1`: > 46 µM.
`CCN(Cc1ccc(Cl)nc1)/C(=C/[N+](=O)[O-])NC`: the half-maximal inhibitory concentration (IC50) was > 46 µM.
`CC(=O)Nc1ccc(OCC(O)CNC(C)C)cc1` (stereo not drawn): the IC50 was > 46 µM.
Take `OC[C@H]1O[C@@H]2O[C@H]3[C@H](O)[C@@H](O)[C@@H](O[C@H]4[C@H](O)[C@@H](O)[C@@H](O[C@H]5[C@H](O)[C@@H](O)[C@@H](O[C@H]6[C@H](O)[C@@H](O)[C@@H](O[C@H]7[C@H](O)[C@@H](O)[C@@H](O[C@H]8[C@H](O)[C@@H](O)[C@@H](O[C@H]1[C@H](O)[C@H]2O)O[C@@H]8CO)O[C@@H]7CO)O[C@@H]6CO)O[C@@H]5CO)O[C@@H]4CO)O[C@@H]3CO`: the IC50 is > 46 µM.
Take `OC[C@H]1O[C@@H]2O[C@H]3[C@H](O)[C@@H](O)[C@@H](O[C@H]4[C@H](O)[C@@H](O)[C@@H](O[C@H]5[C@H](O)[C@@H](O)[C@@H](O[C@H]6[C@H](O)[C@@H](O)[C@@H](O[C@H]7[C@H](O)[C@@H](O)[C@@H](O[C@H]1[C@H](O)[C@H]2O)O[C@@H]7CO)O[C@@H]6CO)O[C@@H]5CO)O[C@@H]4CO)O[C@@H]3CO`: the IC50 is > 46 µM.
For the compound `C=CCc1ccc(O)c(OC)c1`, the IC50 was > 46 µM.
Turning to `CC[N+](CC)(CC)CCOc1cccc(OCC[N+](CC)(CC)CC)c1OCC[N+](CC)(CC)CC.[I-].[I-].[I-]`, the IC50 is > 46 µM.
As to `Cl.NC1=NCC2c3ccccc3Cc3ccccc3N12` (stereo not drawn), the IC50 is > 46 µM.
`O=C(Nc1ccc(C(=O)O)c(O)c1)c1ccccc1`: the IC50 was > 46 µM.
For `CCOC(=O)[C@H](CCc1ccccc1)N[C@@H](C)C(=O)N1[C@H](C(=O)O)C[C@@H]2CCC[C@@H]21`, the IC50 is > 46 µM.
In the case of `Cc1cccc(C)c1NC(=O)NC1=CCCN1C`, the IC50 was > 46 µM.
On to `CN(C)[C@@H]1C(O)=C(C(N)=O)C(=O)[C@@]2(O)C(O)=C3C(=O)c4c(O)ccc(Cl)c4[C@@H](O)[C@H]3C[C@@H]12.Cl`, for which the IC50 is > 46 µM.
The same measure for `O=C5O[C@]4(CC5)[C@@]3(C)C[C@@H]6[C@]([C@@]([C@@]([H])3CC4)([H])[C@H]([C@@](OC)=O)C2)(O6)[C@@](C2=C1)(C)CCC1=O`: > 46 µM; for `OCC=Cc1ccccc1`: > 46 µM.
Turning to `CC(=O)OCC1=C(C(=O)[O-])N2C(=O)[C@@H](NC(=O)CSc3ccncc3)[C@H]2SC1.[Na+]`, the IC50 was > 46 µM.
The same measure for `CC(C)(C)NCC(O)c1cc(O)cc(O)c1.CC(C)(C)NCC(O)c1cc(O)cc(O)c1.O=S(=O)(O)O` (stereo not drawn): > 46 µM; for `Cc1cc(O)cc2c1O[C@](C)(CCC[C@H](C)CCC[C@H](C)CCCC(C)C)CC2`: > 46 µM.
Regarding `C[N+](C)(C)CCCCCC[N+](C)(C)C`, the half-inhibitory concentration (IC50) is > 46 µM.
As for `Cc1cccc(C)c1OCC(C)N.Cl` (stereo not drawn), the IC50 is > 46 µM.
With `O[C@@H]([C@H](O)[C@H](O)CBr)[C@H](O)CBr`, the IC50 is > 46 µM.
The same measure for `Cc1nc2ccccc2n1Cc1ccc(Cl)cc1`: > 46 µM; for `CCOC(=S)SSC(=S)OCC`: > 46 µM; for `CCc1cn([C@H]2C[C@H](O)[C@@H](CO)O2)c(=O)[nH]c1=O`: > 46 µM.
Take `[O]=[Bi][O][Bi]=[O]`: the IC50 was > 46 µM.
In the case of `Nc1nc(N)nc(-c2cc(Cl)ccc2Cl)n1.O=C(O)/C=C\C(=O)O`, the IC50 is > 46 µM.
For the compound `Nc1ccc(S(=O)(=O)Nc2cnc3ccccc3n2)cc1`, the concentration for half-maximal inhibition (IC50) is > 46 µM.
For `Cc1ccc(/N=C/N(C)/C=N/c2ccc(C)cc2C)c(C)c1`, the IC50 was > 46 µM.
The same measure for `CCC(=O)c1c(O)cc(O)cc1O`: > 46 µM; for `COc1cc(N)c(Cl)cc1C(=O)NC1CCN(Cc2ccccc2)CC1.O=C(O)/C=C\C(=O)O`: > 46 µM.
The same measure for `CN1C(=O)CC(=O)N(c2ccccc2)c2cc(Cl)ccc21`: > 46 µM; for `CN(C)N=Nc1nc[nH]c1C(N)=O`: > 46 µM.
Consider `Nc1nc(=O)c(Br)c(-c2ccccc2)[nH]1`, for which the IC50 is > 46 µM.
Take `CC1=C2[C@H]3OC(=O)[C@@H](C)[C@@H]3CC[C@@]2(C)C=CC1=O`: the IC50 was > 46 µM.
In the case of `CN1CCN(c2cc3c(cc2F)c(=O)c(C(=O)O)cn3-c2ccc(F)cc2)CC1.Cl`, the IC50 is > 46 µM.
As to `CCCCNC(=N)NC(=N)N`, the IC50 was > 46 µM.
To `CC1(C)OC(=O)NC1=O` belongs > 46 µM.
Turning to `O=C(Oc1ccccc1C(=O)O)c1ccccc1O`, the IC50 was > 46 µM.
To `CC(=O)NO` belongs > 46 µM.
For the compound `N[C@@H](C\C1=C\N=C/N1)C(O)=O.Cl`, the IC50 was > 46 µM.
For `COc1ccccc1OCC(O)COC(N)=O` (stereo not drawn), the IC50 was > 46 µM.
`C(=Cc1ccncc1)c1ccccc1`: the IC50 was > 46 µM.
With `C[C@@H]1CN(c2c(F)c(F)c3c(=O)c(C(=O)O)cn(C4CC4)c3c2F)C[C@H](C)N1`, the IC50 is > 46 µM.
Take `Cl.Cl.NCCNc1cccc2ccccc12`: the IC50 was > 46 µM.
As to `O=c1ccc2cc(O[C@@H]3O[C@H](CO)[C@@H](O)[C@H](O)[C@H]3O)c(O)cc2o1`, the IC50 is > 46 µM.
Consider `CCN(CC)S(=O)(=O)c1ccc(C(=O)O)cc1`, for which the IC50 is > 46 µM.
Take `NC(=S)N/N=C/c1cccnc1`: the IC50 was > 46 µM.
On to `COc1ccc2c(c1)N(C[C@H](C)CN(C)C)c1ccccc1S2.O=C(O)/C=C\C(=O)O`, for which the IC50 is > 46 µM.
With `C=CC1=C(C(=O)O)N2C(=O)[C@@H](NC(=O)C(=NO)c3csc(N)n3)[C@H]2SC1`, the IC50 was > 46 µM.
On to `ClC=C(Cl)Cl`, for which the IC50 is > 46 µM.
With `CCS(=O)(=O)CCn1c([N+](=O)[O-])cnc1C`, the IC50 is > 46 µM.
To `O=C1C=CC([C@](N)2CC(C)=C3)=C(C[C@H]3/[C@]2=C\C)N1` belongs > 46 µM.
For `COc1ccc(CCN(C)CCCN2CCc3cc(OC)c(OC)cc3CC2=O)cc1OC.Cl`, the IC50 was > 46 µM.
